Laboratory results as given in patent US12351574B2, “Selective ligands for modulation of GIRK channels” (Northeastern University, priority 2018, dated 2025).

How the values were obtained:
GIRK1/2(I-V) = biological target: T1, GIRK1/2(I-V) (UniProt P48542+P48549, I97V); assay: TEVC in Xenopus oocytes, single mutant GIRK1/2(I-V); type: cell-based, human GIRK1, mouse GIRK2; settings: GIRK1/2(I-V) single mutant
T1 construct: expressed in transfected cells; host or cells: Xenopus laevis oocytes (cRNA injection)
T1 sequence (P48549 1-501): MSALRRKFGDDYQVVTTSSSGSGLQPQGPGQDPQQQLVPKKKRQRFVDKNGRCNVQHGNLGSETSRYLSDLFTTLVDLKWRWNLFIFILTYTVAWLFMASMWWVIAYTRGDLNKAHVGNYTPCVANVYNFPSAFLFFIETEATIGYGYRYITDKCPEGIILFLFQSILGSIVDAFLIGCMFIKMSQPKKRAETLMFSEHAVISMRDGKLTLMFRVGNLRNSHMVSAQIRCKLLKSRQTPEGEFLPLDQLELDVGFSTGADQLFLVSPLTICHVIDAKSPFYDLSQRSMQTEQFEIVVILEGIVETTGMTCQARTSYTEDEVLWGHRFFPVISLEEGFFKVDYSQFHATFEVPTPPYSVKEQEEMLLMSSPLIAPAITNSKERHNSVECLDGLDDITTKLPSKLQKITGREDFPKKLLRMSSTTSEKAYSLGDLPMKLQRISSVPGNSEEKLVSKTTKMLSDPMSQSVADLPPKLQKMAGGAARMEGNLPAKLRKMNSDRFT
T1 sequence (P48542 1-425 I97V): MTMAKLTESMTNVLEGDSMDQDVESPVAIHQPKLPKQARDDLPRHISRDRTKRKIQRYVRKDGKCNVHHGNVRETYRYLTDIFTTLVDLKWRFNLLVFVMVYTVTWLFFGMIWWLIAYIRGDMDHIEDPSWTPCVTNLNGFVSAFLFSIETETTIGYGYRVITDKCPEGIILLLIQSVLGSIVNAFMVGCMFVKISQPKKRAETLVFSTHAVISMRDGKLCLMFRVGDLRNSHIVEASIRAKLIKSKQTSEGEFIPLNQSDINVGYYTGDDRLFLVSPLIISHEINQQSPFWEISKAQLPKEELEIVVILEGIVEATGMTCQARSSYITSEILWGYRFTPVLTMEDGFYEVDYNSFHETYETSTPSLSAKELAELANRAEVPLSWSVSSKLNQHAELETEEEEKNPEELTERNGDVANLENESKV
Excerpt: (§1) Molecular biology: For Xenopus oocyte expression, human GIRK1 and human GIRK4 cDNAs were subcloned into pGEMHE. For mammalian expression, human GIRK1 and human GIRK4 cDNAs were subcloned into pcDNA3 and pcDNA3.1/V5-His B, respectively (Invitrogen). Mouse GIRK2 cDNA was subcloned in the dual-function vector, pXoom. Point mutations were introduced using a standard Pfu-based mutagenesis technique according to the QuikChange protocol (Agilent). Mutations were verified by sequencing.
(§2) Electrophysiology of oocytes: Whole-oocyte currents were measured by conventional two-electrode voltage clamp (TEVC) with a GeneClamp 500 amplifier (Axon Instruments). Agarose cushion microelectrodes were filled with 1.5% (w/v) agarose in 3 M KCl and were used with resistances between 0.1 and 1.5 megaohms. […] Barium-sensitive basal currents from both groups, 1) Vehicle, 2) single concentration at 10 μM and 3) multiple concentrations of ML297 or GAT compounds in the presence of HK solution, were assessed at −80 mV using TEVC. Barium-sensitive currents were normalized to average basal current in the vehicle solutions. The HK solution contained the following: 96 mM KCl, 1 mM NaCl, 1 mM MgCl2, 5 mM KOH/HEPES, pH 7.4. The barium solution consisted of HK+10 mM BaCl2. Five to ten oocytes from the same batch (same frog) were recorded for each group, and the experiments were repeated in at least four batches. Data acquisition and analysis were carried out using pClamp9 (Molecular Devices) and OriginPro (Microcal) software.
(§3) To test these computational predictions, the inventors mutated each or both of the two M1 key wild-type GIRK4 subunit residues to the corresponding GIRK2 residues (GIRK4-V92I, GIRK4-T94V, GIRK4-V92I/T94V or GIRK4-dm) and vice-versa the GIRK2 residues to the corresponding GIRK4 ones (GIRK2-I97V, GIRK2-V99T, GIRK2-I97V/V99T or GIRK2-dm) (FIG. 35). […]

GIRK1/4(T-V) = biological target: T2, GIRK1/4(T-V) (Homo sapiens, UniProt P48544+P48549, T94V); assay: TEVC in Xenopus oocytes, single mutant GIRK1/4(T-V); type: cell-based; settings: GIRK1/4(T-V) single mutant
T2 construct: expressed in transfected cells; host or cells: Xenopus laevis oocytes (cRNA injection)
T2 sequence (P48549 1-501): T1 sequence (P48549 1-501)
T2 sequence (P48544 1-419 T94V): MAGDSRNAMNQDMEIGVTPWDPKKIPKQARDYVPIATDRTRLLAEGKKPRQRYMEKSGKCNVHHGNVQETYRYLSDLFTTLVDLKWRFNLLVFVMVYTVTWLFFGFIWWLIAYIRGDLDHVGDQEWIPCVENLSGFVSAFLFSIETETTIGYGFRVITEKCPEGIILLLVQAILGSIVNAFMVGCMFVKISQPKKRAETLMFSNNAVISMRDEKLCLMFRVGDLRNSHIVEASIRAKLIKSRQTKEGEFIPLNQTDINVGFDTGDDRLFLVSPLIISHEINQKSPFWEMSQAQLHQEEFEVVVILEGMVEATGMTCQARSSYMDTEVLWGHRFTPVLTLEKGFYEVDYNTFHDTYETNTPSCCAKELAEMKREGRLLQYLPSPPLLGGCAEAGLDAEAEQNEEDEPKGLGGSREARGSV
Excerpt: as §1, §2, §3

[1] = read-out: EMAX, % of the control GIRK1/2

For Cc1cc(NC(=O)Nc2ccc(Br)s2)n(-c2ccccc2)n1 [GAT1508, 1-(5-bromothiophen-2-yl)-3-(3-methyl-1-phenyl-1H-pyrazol-5-yl)urea], the EC50 (GIRK1/2(I-V)) was 500 ± 110 nM, the EMAX (GIRK1/2(I-V)) was 1.61±0.03 and the Emax (GIRK1/2(I-V); [1]) was 42%. It also gave an EC50 (GIRK1/4(T-V)) of 500 ± 470 nM, an EMAX (GIRK1/4(T-V)) of 1.12±0.03 and an Emax (GIRK1/4(T-V); [1]) of 7%.
